{"source": "patent US12540173B2", "about": "“Methods of treating cancer by targeting ZSCAN4 activity in cancer stem cells” (University of Maryland, Baltimore, priority 2019, dated 2026)", "key": {"[1]": {"system": "ZSCAN4 depleted Tu167 cells", "conditions": "increasing doses, ZSCAN4 depleted Tu167 cells compared to isogenic NTC shRNA cells, MTT", "description": "FIG. 14. […] All data shown as mean±S.E.M. observed in triplicate in at least three independent experiments. Asterisks indicate: *p<0.05, **p<0.01, ***p<0.001.\nAnother hallmark of CSCs is multi-drug resistance, a major factor contributing to cancer recurrence. Therefore, we examined the role of ZSCAN4 in response to genotoxic drugs. To define the effect of ZSCAN4 on drug resistance, we measured cell viability after increasing doses of the DNA damaging drugs in ZSCAN4 depleted and control Tu167 cells."}, "[2]": {"system": "tet-ZSCAN4 cells", "test": "Dox-regulated ZSCAN4 induction and clearance, immunoblot", "format": "cell-based, human", "protocol": "FIG. 9. A, An illustration of the tet-ZSCAN4 expression vector. B, Image of tet-ZSCAN4 (Tu167) cells showing expression of GFP. C, Immunoblot analyses indicate ZSCAN4 is tightly regulated by Dox and localizes to the nucleus; Controls: LDH (cytosol), Lamin-B (nucleus). D, Doxycycline addition to the culture medium (Dox+) induces ZSCAN4 within 6 hours.\nImmunoblot Assays. Cytosolic proteins were extracted by Cytoskeleton buffer (10 mM PIPES, 300 mM sucrose, 100 mM NaCl, 3 mM MgCl2, 1 mM EGTA and 0.5% Triton X100), and nucleoplasm fraction was isolated. Next, pellets were lysed in urea solution (8 M Urea in 0.01 Tris pH 8+0.1M NaH2PO4) and sonicated. Samples were electrophoresed in polyacrylamide gels. PVDF membranes were blocked with 5% nonfat milk or Superblock (Thermo Fisher Scientific) for 1 hour, then incubated overnight at 4° C. with the indicated primary antibodies in blocking solution (Table 2). Membranes were washed and incubated with secondary antibodies (1:5000) for 1 hour. Secondary antibodies were visualized by ECL Chemiluminescence (ThermoFisher Scientific). […]"}, "[3]": {"system": "OCT3/4, SOX2, KLF4 and NANOG", "test": "qPCR of pluripotent stem cell factors after ZSCAN4 knockdown", "format": "cell-based, human", "conditions": "vs NTC-shRNA", "protocol": "RNA extraction and Quantitative Reverse Transcriptase Polymerase Chain Reaction (qRT-PCR). One microgram of total RNA, isolated with Trizol, was reverse transcribed by Superscript III (Invitrogen) following the manufacturer's protocol. For qPCR, 10 ng cDNA was used per well in triplicate using SYBR green reaction mix (Roche) following the manufacturer's instructions with corresponding primers (Table 1). Reactions were run on the LightCycler 480 system (Roche). Fold induction was calculated by the delta-delta Ct method.\nZSCAN4 shRNAs were tested (19-mer sense, a hairpin loop, and 19-mer anti-sense oligos): shRNA1 (SEQ ID NO:3): 5′-[…] G-3′, shRNA2 (SEQ ID NO:4): 5′-[…] TG-3, shRNA3 (SEQ ID NO:5): 5′-[…] T-3 and two were cloned into the HuSH shRNA Plasmid pRFP-C-RS (Origene). Vectors were stably transfected into Tu167 or 012SCC cells by Effectene (QIAGEN) according to the manufacturer's protocol. As controls, isogenic cell lines were also generated expressing a non-targeting control shRNA (NTC-shRNA) or an Empty vector (same vector without an shRNA cassette). Cell lines were selected with 1 μg/ml Puromycin (ThermoFisher Scientific). Knockdown was confirmed by immunostaining and by qPCR.\nNext, we used two of the shRNA sequences (shRNA1 and shRNA2) to generate stable knockdown cell lines (in Tu167 and 012SCC cells). Isogenic cells for each cell line with NTC-shRNA, or empty vector were used as controls. […] Our results further indicate a decrease in the CSC markers BMI1 and EZH2 (FIG. 5C)."}}, "note": "Like-named read-outs stand apart in the source and are kept apart here."}
{"molecule": "N.N.[Cl][Pt][Cl]", "note": "[CPT, Cisplatin]", "values": [{"measurement": "cell viability", "setting": "[1]", "result": "significantly decreased cell viability"}, {"measurement": "cell viability", "setting": "[1]; listed as Cisplatin", "result": "hypersensitivity"}]}
{"molecule": "C[C@H]1c2cccc(O)c2C(=O)C2=C(O)[C@]3(O)C(=O)C(C(N)=O)=C(O)[C@@H](N(C)C)[C@@H]3[C@@H](O)[C@@H]21", "note": "[Dox, Doxycycline]", "values": [{"measurement": "time until ZSCAN4 is detectable after addition of Dox to the medium", "setting": "[2]", "result": "≤ 6", "unit": "h"}]}
{"molecule": "Bleomycin [BLM]", "values": [{"measurement": "cell viability", "setting": "[1]", "result": "dramatically reduced cell viability"}, {"measurement": "cell viability", "setting": "[1]; listed as Bleomycin", "result": "hypersensitivity"}]}
{"molecule": "shRNA1: ZSCAN4 shRNA, SEQ ID NO:3: 5′-GAGAACGGTCCTAGGCCTGTCAAGAGGAGAACGGTCCTAGGCCTG-3′", "values": [{"measurement": "expression of OCT3/4, SOX2, KLF4 and NANOG", "setting": "[3]; 012SCC stable knockdown cells", "result": "significant downregulation"}, {"measurement": "expression of OCT3/4, SOX2, KLF4 and NANOG", "setting": "[3]; 012SCC stable knockdown cells, listed as shRNA 1", "result": "decreased expression"}, {"measurement": "expression of OCT3/4, SOX2, KLF4 and NANOG", "setting": "[3]; Tu167 stable knockdown cells", "result": "significant downregulation"}, {"measurement": "expression of OCT3/4, SOX2, KLF4 and NANOG", "setting": "[3]; Tu167 stable knockdown cells, listed as shRNA 1", "result": "decreased expression"}]}
{"molecule": "shRNA2: ZSCAN4 shRNA, SEQ ID NO:4: 5′-GATATCAGACCTACGGGTGTCAAGAGGATATCAGACCTACGGGTG-3′", "values": [{"measurement": "expression of OCT3/4, SOX2, KLF4 and NANOG", "setting": "[3]; 012SCC stable knockdown cells", "result": "significant downregulation"}, {"measurement": "expression of OCT3/4, SOX2, KLF4 and NANOG", "setting": "[3]; 012SCC stable knockdown cells, listed as shRNA 2", "result": "decreased expression"}, {"measurement": "expression of OCT3/4, SOX2, KLF4 and NANOG", "setting": "[3]; Tu167 stable knockdown cells", "result": "significant downregulation"}, {"measurement": "expression of OCT3/4, SOX2, KLF4 and NANOG", "setting": "[3]; Tu167 stable knockdown cells, listed as shRNA 2", "result": "decreased expression"}]}
